From US10766855B2, “Hydroxamate triterpenoid derivatives” (VIVACELL BIOTECHNOLOGY ESPANA S.L., priority 2016, dated 2020)

Assays:
STAT3 = STAT3 inhibition in HeLa-STAT3-Luc cells stimulated with IFN-γ; type: cell-based; settings: IFN-γ 25 IU/ml, 6 h
Description: The HeLa-STAT3-luc cells stably transfected with the plasmid 4×M67 pTATA TK-Luc. Cells (20×10^3 cells/ml) were seeded in 96-well plates, treated with increasing concentrations of the compounds II to XIV, and of comparative compound CDDO-Me, for 15 min and then stimulated with IFN-γ 25 IU/ml. After 6 h the luciferase activity in the cell lysates was measured as indicated above. […] The HaCaT-ARE-Luc cell line contains the Nqo1 Antioxidant Response Element (ARE)-Luc reporter plasmid. ARE is activated by all members of the CNC family of factors (Nrf1, Nrf2, Nrf3 and p45 NF-E2). The cells were cultivated in 96-well plates at the concentration of 25×10^3 cells/well in a CO2 incubator at 37° C. For induction of Nrf2 activation the cells were treated with increasing concentrations of the compounds II to XV, and of comparative compound CDDO-Me, for 6 h. As a positive control the cells were treated with 0.02 mM of the antioxidant Tert-butyl-hydroquinone (TBHQ). Luciferase activity in the cell lysates was measured as indicated above and the EC50 calculated (Table III). The CHO-TGR5-CRE-Luc cells stably transfected with the pTGR5 and CRE-Luc. The CRE-responsive luciferase construct encodes the firefly luciferase reporter gene under the control of a minimal (m)CMV promoter and tandem repeats of the CRE transcriptional response element (TRE) and is useful to monitor cAMP signaling pathways activated by TGR5 agonists. Cells (1×10^4/well) were seeded in 96-well plates, treated with increasing concentrations of the compounds II to XV and CDDO-Me, for 6 h. As a positive control the cells were treated with 10 μM of LCA (lithocholic acid). Luciferase activity in the cell lysates was measured as indicated above and the EC50 calculated (Table III).

HIF-1α = HIF-1α stabilization in 293T cells (Western blot); type: cell-based, human; settings: increasing concentrations, 3 h
Description: Stimulation of human Embryonic Kidney 293 cells with increasing concentrations of compound VII or with DFX (150 μM) during 3 h. The steady state levels of the proteins HIF-1α, PHD1, PHD2 and β-actin were determined by Western blots.
Next, Human Embryonic Kidney 293 cells (293T) were stimulated with the increasing concentrations of compound VII or with DFX (150 μM) during 3 h. After that, proteins isolation and western blots were performed as in FIG. 3. The antibody against HIF-1α (610959) was from BD Biosciences (USA), the antibodies anti-PHD1 (ab80361) and anti-PHD2 (ab109088) were from Abcam (Cambrigde, UK), and the antibody anti-β-actin (AC-74) was purchased from Sigma-Aldrich (Saint Louis, Mo., USA).

[1] = tested on: STHdhQ7/Q7 and STHdhQ111/Q111 striatal cells; assay: 3-NP-induced cytotoxicity in striatal Q7 and Q111 cells (YOYO-1); type: cell-based, mouse; settings: 6 h pre-treatment, 3-NP 10 mM 24 h; compound VII increasing concentrations, DFX 50 μM
Description: FIG. 8. Compound VII abrogates 3-NP toxicity in Q7 and […] striatal cells. Q7 and Q111 Striatal cells were pretreated with increasing concentrations of compound VII for 6 h and then exposed to 3-NP (10 mM) for an additional 24 h, after which YOYO-1 staining was used to investigate cell death. Cell death was determined using the IncuCyte HD software and the treatment with 3-NP alone in Q111 cells was considered as 100% of cell death.
To investigate whether HIF activation in striatal Q7 and Q111 cells is sufficient to protect striatal neurons (provide neuroprotection), the effect of compound VII on 3-NP induced death was examined. […]
STHdh^Q7/Q7 and STHdh^Q111/Q111 cells (10^4 cells/well in 96-well plates) were incubated with YOYO-1 (Life Technologies) and then treated with 3-NP (10 mM) and or DFX (50 μM) as a positive control for PHDs inhibition. […] The uptake of YOYO-1 by damaged cells correlates with the increase in YOYO-1 fluorescence. Treated cells are placed in an Incucyte FLR imaging system, and the YOYO-1 fluorescence is measured after 24 h of 3-NP treatment. Following the incubation period object counting analysis was performed using the Incucyte FLR software to calculate the total number of YOYO-1 fluorescence positive cells and total DNA containing objects (end point). […]

C=C(C)[C@@H]1CC[C@]2(C(=O)NO)CC[C@]3(C)[C@H](CC[C@@H]4[C@@]5(C)CC[C@H](O)C(C)(C)[C@@H]5CC[C@]43C)[C@@H]12 [Compound VII, (3β) 3-Hydroxy-N-hydroxy-lup-20(29)-en-28-amide]
IC50 (STAT3): > 50 µM | HIF-1α expression (HIF-1α): stabilized HIF-1α expression | expression of PHD1 and PHD2 (HIF-1α): without affecting the expression of PDH1 and PDH2 | neuroprotection to 3-NP-induced cytotoxicity (cell death) [1]: clearly provided a significant level of neuroprotection
